Results published in US12161669B2, “Compositions and methods for cell targeting therapies” (UMC UTRECHT HOLDING B.V., priority 2017, dated 2024).

How the values were obtained:
Format in all cases: cell-based
RhoB = assay: Intracellular RhoB distribution by confocal microscopy in cell lines; conditions: cell lines (EBV-LCL 48)
Procedure: For intracellular immunofluorescence staining of RhoB, cells were treated with pamidronate overnight (where indicated) and were allowed to attach onto coverslips precoated with poly-Llysine (Sigma-Aldrich). […] Cells were washed with blocking serum, fixed with 4% paraformaldehyde, stained with DAPI (where indicated), and mounted onto microscopy slides using Mowiol. Images were acquired using a Zeiss confocal laser scanning microscope LSM 700. Ratios between nuclear and extranuclear signal of RhoB was determined using Volocity software (PerkinElmer) or Image J software, where DAPI staining was used, when available, to mark nuclei.

RhoA = assay: Intracellular RhoA distribution by confocal microscopy in EBV-LCL 48; conditions: EBV-LCL 48, with or without ABP
CD277 and F-actin = assay: Colocalization of CD277 and F-actin in HEK 293 cells; conditions: single agent vs medium
Procedure: To determine colocalization between BTN3 molecules and the actin cytoskeleton, HEK 293 cells were grown onto poly-L-lysin-coated coverslips and pretreated with either calpeptin (2 μg/ml) or C3 transferase (20 μg/ml) prior to treating samples with pamidronate Cells were fixed, permeabilized and BTN3 and F-actin were stained with DyLight 680-conjugated BTN3 antibody (clone BT3.1, Novus Biologicals) and Fluorescein-coupled phalloidin (Sigma), respectively. The correlation coefficient between BTN3 and F-actin signal was determined as a measure of colocalization using Volocity software.

CD277 = assay: Flow cytometry FRET of CD277 homodimerization in HEK 293 cells; conditions: medium vs ABP
Procedure: In order to determine homodimerization of CD277 molecules, cells were co-stained with equal amount of PE-conjugated anti-CD277 (donor) and […]680-conjugated anti-CD277 (acceptor) and samples were measured using a FACS Canto-II flow cytometer (BD). FRET efficiency was calculated with equations according to Sebestyen and colleagues (Sebestyen et al., 2002) where donor fluorescence was excited at 488 nm and detected at 576±26 nm, acceptor fluorescence was excited at 635 nm and detected at 780±60 nm, whereas FRET intensity was excited at 488 nm and detected at 780±60 nm. Correction factors for the spectral overlap between the different fluorescence channels were obtained from data measured on unlabeled and single-labeled cells.

RhoB and CD277 = assay: Flow cytometry FRET of RhoB-CD277 association in HEK 293 cells; conditions: ABP treated vs untreated
Procedure: To study association of RhoB and BTN3 molecules, cells were permeabilized by using Permeabilization solution 2 (BD), then blocked with PBS containing 50% Human serum and labeled with rabbit polyclonal anti-RhoB antibody (AbCam). After washing with PBS, samples were labeled with Alexa594-conjugated Goat anti-Rabbit IgG (acceptor) (Jackson ImmunoResearch) and CD277-PE (donor) (BT3.1, Biollegend), respectively. The donor fluorescence was measured using a FACS Canto-II flow cytometer (BD) where donor fluorescence of the double-labeled samples was compared with that of samples labeled only with donor antibody. FRET efficiency was calculated from the fractional decrease of the donor fluorescence in the presence of the acceptor.

Daudi = assay: IFNγ ELISA of γ9δ2T cell clones co-incubated with Daudi
Procedure: PBMCs were stained with monoclonal antibody (mAb) to Vδ2 (Vδ2-FITC clone B6). The mAb-positive fraction was either sorted in bulk, expanded on REP, and thereafter cloned by limiting dilution (donor A) or single cell-sorted using FACS sort with collection of single cells in 96 well plates (donors B, C). All FACS sorts were performed on ARIAII (BD). Eight to twelve rounds of expansion on REP preceded functional testing. As soon as the cells expanded to sufficient numbers functional testing was performed: 5*10^4 T cells were incubated overnight together with target cells at 1:1 E:T ratio in DMEM supplemented with 10% FCS and 1% pen/strep, without or in the presence of 100 uM Pamidronate Disodium salt (Calbiochem Cat #506600), supernatants were harvested the day after, and IFNγ concentration was measured using ELISA (eBioscience Ready-Set-Go! ELISA kit, Invitrogen Cat #88731688).
In order to assess on a broader range the impact of individual γ9δ2TCR on the functional activity of individual γ92δT cell clones γδ T cell clones were isolated by limiting dilution or FACS sorting. In vitro antitumor activity was determined by IFNγ production against the tumor cell line Daudi. Substantial antitumor functional heterogeneity was observed among the γ9δ2T cell clones (N=57) isolated from 4 healthy donors, with approximately 60% of the clones being reactive to the tumor cell line Daudi (FIG. 13A), when choosing a cut-off of 30 pg/ml for reliable measurement of IFNγ concentration. Bisphopshonates such as pamidronate (PAM) can enhance activity of γ9δ2T cells through induction of CD277J, facilitated by RhoB and sensed by the γ9δ2TCR. In the presence of 100 μM PAM the reactivity of investigated γ9δ2T cell clones was on average 10-fold enhanced (range 0.7-37.3; median 8.1) with >95% of the clones showing reactivity above the threshold when PAM was added (FIG. 13A). In order to assess whether activity profiles where exclusively observed for Daudi cells or also valid for other targets, the cell line HEK293FT, an additional well-characterized γδT cell target, was co-incubated with the isolated γδT cell clones. HEK293FT cell line elicited much lower cytokine secretion in the absence of PAM with only approximately 30% of γ9δ2T cell clones secreting IFNγ above cut-off (FIG. 13B).

HEK293FT tumor cells = assay: Tumor cell-T cell conjugate formation with HEK293FT cells (confocal); conditions: Jurma cells expressing γδTCRs, 100 μM PAM
Procedure: HEK293FT cells were seeded in μ-slide poly-L-lysine pre coated chamber (Ibidi) to adhere overnight. Next day cells were treated with 100 μM PAM for one hour at 37° C. TEGs were added onto HEK293FT cells and incubated at 37° C. for 30-120 minutes. After co-incubation chambers were immediately placed onto ice and fixed with 4% PFA for 30 minutes. Samples were blocked with 1% BSA/FCS and labeled with CD3ε-Alexa Fluor 647 (BD Biosciences) at 2 μg/mL for two hours at room temperature, and finally fixed with 1% PFA+DAPI. Samples were imaged with Zeiss LSM-710 and analyzed with Volocity software (PerkinElmer). In order to quantify the number of conjugates between HEK293FT and TEG cells we calculated the ratio between CD3c positive objects and DAPI positive objects on each image taken. To analyse gamma delta TCR enrichment into the immunological synapse, we calculated the ratio of CD3c signal enrichment inside the contact area versus outside of contact area of the target and effector cell on 63× magnified images. To further assess whether distinct functional avidity of γ9δ2TCRs when expressed in the TEG format is regulated by their ability to mediate binding of TEGs to tumor cell targets a more dynamic model was utilized. […] The number of tumor cell-T cell conjugates was assessed. […]

NCCC(O)(P(=O)(O)O)P(=O)(O)O [pamidronate]
Re-localization of RhoB from the nucleus or nuclear membrane to extranuclear sites (RhoB): induced | intracellular distribution of RhoA (RhoA): did not change | colocalization between CD277 and F-actin (CD277 and F-actin): markedly reduced | pairing of CD277 molecules (homodimer FRET) (CD277): insensitive | close association between RhoB and CD277 (FRET efficiency) (RhoB and CD277): increased markedly | clones showing reactivity above the threshold (Daudi; 100 μM PAM added, cut-off 30 pg/ml IFNγ): > 95% | enhancement of reactivity of γ9δ2T cell clones, average (Daudi; 100 μM PAM vs no PAM): 10 fold | enhancement of reactivity of γ9δ2T cell clones, median (Daudi; 100 μM PAM vs no PAM): 8.1 fold | enhancement of reactivity of γ9δ2T cell clones, range (Daudi; 100 μM PAM vs no PAM): 0.7-37.3 fold | number of tumor cell-T cell conjugates, effect of PAM (HEK293FT tumor cells): increased the number of conjugates
